Assay results published in publication PMC3479139, “Diverse Small Molecule Inhibitors of Human Apurinic/Apyrimidinic Endonuclease APE1 Identified from a Screen of a Large Public Collection” (PLoS ONE, 2012).

Columns and labels:
[1] = biological target: T1, APE1 (Homo sapiens, UniProt P27695); test: Fluorogenic kinetic qHTS APE1 incision assay (primary screen and retest of cherrypicked samples); format: biochemical;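 also: purified APE1 cleaving a fluorophore/dark-quencher labelled 17-mer duplex DNA bearing a tetrahydrofuran AP site, fluorescence rise followed kinetically over the first 2 min, inhibition normalized to controls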
T1 construct: made in house
T1 sequence (P27695 whole entry): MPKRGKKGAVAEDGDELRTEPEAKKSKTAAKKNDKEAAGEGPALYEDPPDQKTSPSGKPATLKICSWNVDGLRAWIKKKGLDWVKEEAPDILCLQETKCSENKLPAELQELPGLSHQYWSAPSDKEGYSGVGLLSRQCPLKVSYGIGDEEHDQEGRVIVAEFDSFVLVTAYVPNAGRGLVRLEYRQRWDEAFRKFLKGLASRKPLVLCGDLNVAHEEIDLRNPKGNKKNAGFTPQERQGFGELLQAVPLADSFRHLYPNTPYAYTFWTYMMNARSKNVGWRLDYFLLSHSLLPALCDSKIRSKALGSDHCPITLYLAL
Procedure: All screening operations were performed on a fully integrated robotic system (Kalypsys, San Diego, CA) [28] with library plates screened proceeding from the lowest to the highest concentration to minimize compound carryover [26]. Vehicle-only plates, with DMSO being pin-transferred to the entire column 5–48 compound area, were included regularly throughout the screen in order to record any systematic shifts in assay signal. During the screen, reagent bottles were kept at 4°C and all liquid lines were covered with aluminum foil to minimize degradation.
Screening data were corrected and normalized, and concentration–effect relationships was derived using in-house developed algorithms [25].
To screen for inhibitors of APE1 incision activity, we employed a purified-enzyme biochemical assay with a model substrate featuring a red-shifted fluorescent reporter in combination with a dark non-emitting quencher. These moieties were incorporated as end labels onto a 17-mer double-stranded DNA fragment containing a centrally-located tetrahydrofuran AP site sugar mimetic, which serves as the APE1 cleavage site. Upon APE1-catalyzed strand scission immediately 5′ to the AP site analog, the shortened oligodeoxynucleotide carrying the fluorescent reporter spontaneously dissociates from the rest of the substrate, leading to an increase in fluorescence due to its spatial separation from the dark quencher (Figure 1A).
Using a high-speed whole-plate fluorescence imager, the assay data for the entire screen was conducted in kinetic mode, with the APE1 incision reaction being monitored over the initial linear time frame of 2 min (Figure 1B). Thus, any inhibition associated with each sample was computed from the alteration in fluorescence intensity over the time-course measurement period, after normalization against the appropriate controls (Figure 1B, inset).

[2] = biological target: T1, APE1; test: Gel-based radiotracer (32P) APE1 incision assay; format: biochemical; set-up: concentration or dose not given beside the values; conditions: percent incision shown; entries 1-112;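 also: APE1 incision reactions ran 5 min at 37 °C, with cleaved product and intact substrate resolved electrophoretically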
[3] = biological target: T1, APE1; test: Fluorescence polarization (FP) displacement assay of APE1 binding to AP-DNA probe; conditions: read-out: FP IC50;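 also: TAMRA 5′-labeled duplex DNA with THF abasic site (5 nM) and APE1 (20 nM), Mg2+-free buffer, 15 min at room temperature, inhibition seen as lowered polarization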
Procedure: Double-stranded oligodeoxynucleotide containing tetrahydrofuran (THF) abasic site labeled with TAMRA at the 5′-end was used as the labeled binding probe. Inhibition of APE1 binding to labeled probe was detected by a decrease in the fluorescence polarization (FP) of the fluorophore. Briefly, 4 µL mixture of 20 nM APE1 and 5 nM probe contained in the enzymatic assay buffer from which Mg^2+ was omitted, was dispensed into 1536-well Greiner black solid bottom plates. Compounds (23 nL) were transferred via pintool, and after a 15-minute incubation at room temperature, fluorescence polarization was measured in a ViewLux High-throughput CCD imager (480 nm excitation and 540 nm emission) to determine the degree of probe displacement caused by the test compounds.

[4] = biological target: double-stranded 17-mer DNA fragment; test: ThO (Thiazole Orange) DNA displacement assay; format: binding; conditions: read-out: ThO-DNA binding IC50;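 also: miniaturized displacement of the intercalating dye from unlabeled duplex DNA, used to flag nonspecific DNA binders, chiefly intercalators, groove binders may be missed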
[5] = biological target: T2, E. coli Endo IV (Escherichia coli, UniProt P0A6C1); test: E. coli Endo IV profiling counterscreen; format: biochemical; conditions: read-out: EndoIV IC50;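 also: selectivity counterscreen of candidate APE1 inhibitors against the bacterial endonuclease Endo IV, run in the same assay format as the primary APE1 high-throughput screen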
T2 construct: made in house
Source text: In order to screen out nonselective compounds, such as non-specific DNA binders and inhibitors of related enzymes, we used a miniaturized ThO DNA displacement assay and a counterscreen against the bacterial endonuclease E. coli Endo IV, respectively, following the previously published protocols [21].
To probe the selectivity of the candidate APE1 inhibitors, we tested them against E. coli EndoIV [36], employing the same assay as used in the HTS.

[6] = initial quantitative high-throughput screen, read-out: APE1 qHTS IC50
[7] = retest of cherrypicked sample, read-out: APE1 Retest IC50

Compound | IC50 [1, 6] | IC50 [1, 7] | Radiotracer Assay (%Activity) [2] | IC50 [3] | IC50 [4] | IC50 [5] | IC50 ([1]; control on every assay plate, average over screen, read-out: IC50 of intra-plate control titration)
O=c1/c(=C/c2ccco2)sc2nc(-c3ccccc3Br)nn12 [MLS000039532] | 22.4 µM | 7.9 µM | 9% | > 57 µM | > 57 µM | > 57 µM | –
O=C(Nc1ccc2nc(-c3ccco3)c(-c3ccco3)nc2c1)N1CCCCCC1 [MLS000050353] | 3.5 µM | 4 µM | 41% | 12.6 µM | > 57 µM | 15.8 µM | –
O=C1CC(=O)N(Cc2ccco2)C(=O)N1 [MLS000062734] | 10 µM | 5.6 µM | 14% | > 57 µM | > 57 µM | > 57 µM | –
CCn1c(SCC(=O)O)nc2sc3c(c2c1=O)CCC3 [MLS000069140] | 22.4 µM | 12.6 µM | 22.3% | > 57 µM | > 57 µM | > 57 µM | –
CCOC(=O)C1CCN(/C=C2/C(=O)NC(=O)N(Cc3ccco3)C2=O)CC1 [MLS000113273] | 14.1 µM | 3.2 µM | 3% | > 57 µM | > 57 µM | > 57 µM | –
CCCSC1=N/C(=C\C=C\c2ccco2)C(=O)S1 [MLS000114057] | 4 µM | 17.8 µM | 40% | > 57 µM | > 57 µM | > 57 µM | –
COc1ccc(N2Cc3cccc(C(=O)O)c3C2=O)cc1 [MLS000120697] | 12.6 µM | 3.9 µM | 37% | 7.9 µM | > 57 µM | > 57 µM | –
O=C(COC(=O)c1cc2c(s1)CCC2)Nc1ccc(F)cc1 [MLS000334872] | – | 10 µM | 39% | 12.6 µM | > 57 µM | > 57 µM | –
Cc1ccc(NC(=O)CN2C(=O)S/C(=C/c3ccc(-c4cc(C(=O)O)ccc4C)o3)C2=O)cc1C [MLS000530771] | 19.9 µM | 7.1 µM | 21% | 10 µM | > 57 µM | > 57 µM | –
CSC1=N/C(=C\c2ccc(Br)o2)C(=O)S1 [MLS000534059] | – | 8.9 µM | 36% | > 57 µM | > 57 µM | > 57 µM | –
CC(=O)c1ccc(NC(=O)c2ccc3nc(-c4ccco4)c(-c4ccco4)nc3c2)cc1 [MLS000534769] | 19.9 µM | 4 µM | 11% | > 57 µM | 8.9 µM | 10 µM | –
N#Cc1ccccc1CN1C(=O)S/C(=C/c2cccn2-c2cccc(C(=O)O)c2)C1=O [MLS000539676] | 19.9 µM | 14.1 µM | 25% | > 57 µM | > 57 µM | > 57 µM | –
Cc1ccc(NC(=O)CN2C(=O)S/C(=C\c3cccn3-c3cccc(C(=O)O)c3)C2=O)c(C)c1 [MLS000540800] | 8.9 µM | 12.6 µM | 0% | 15.8 µM | > 57 µM | > 57 µM | –
CC1(CC(=O)N/N=C/c2cc([N+](=O)[O-])c(O)cc2O)OCCO1 [MLS000548032] | 14.1 µM | 12.6 µM | 13% | > 57 µM | > 57 µM | > 57 µM | –
O=C(COC(=O)C1CC(=O)N(Cc2ccco2)C1)c1ccc(OC(=O)c2ccccc2)cc1 (stereo not drawn) [MLS000548444] | – | – | 35% | – | > 57 µM | 10 µM | –
O=C(Cc1ccc(S(=O)(=O)N2CCOCC2)s1)Nc1nc2c(s1)CCCC2 [MLS000567201] | – | – | – | – | 15.8 µM | > 57 µM | –
CC1(C)C(=O)CC[C@]2(C)C3C(=O)C=C4[C@H]5C[C@@](C)(C(=O)O)CC[C@]5(C)CC[C@]4(C)[C@]3(C)CC[C@@H]12 (stereo partly drawn) [MLS000697684] | – | – | – | – | > 57 µM | > 57 µM | –
Cc1ccc(C)c(OCCn2ccnc2)c1 [MLS000974607] | – | – | – | – | > 57 µM | > 57 µM | –
O=C(CCC(=O)c1ccc(Oc2ccccc2)cc1)Nc1ccc(C(=O)O)cc1 [MLS001001328] | – | – | – | – | > 57 µM | > 57 µM | –
O=C(COC(=O)/C=C/c1ccco1)NCc1ccco1 [MLS001004396] | – | – | – | – | > 57 µM | > 57 µM | –
O=C(COC(=O)/C=C/c1ccco1)NCc1ccc2c(c1)OCO2 [MLS001006993] | – | – | – | – | > 57 µM | > 57 µM | –

Compound | IC50 [1, 6] | IC50 [1, 7] | Radiotracer Assay (%Activity) [2] | IC50 [3] | IC50 [4] | IC50 [5] | IC50 ([1]; control on every assay plate, average over screen, read-out: IC50 of intra-plate control titration)
O=C(O)C1C2C=CC(C2)C1C(=O)Nc1ccccc1Br (stereo not drawn) [MLS001008562] | – | – | – | – | > 57 µM | > 57 µM | –
Cn1c(SCC(=O)Nc2nncs2)nnc1C1CC1 [MLS001060429] | – | – | – | – | > 57 µM | > 57 µM | –
O=C(COc1ccccc1[N+](=O)[O-])Nc1cccc(S(=O)(=O)NC2=NCCCCC2)c1 [MLS001078387] | – | – | – | – | > 57 µM | > 57 µM | –
CN(CC(=O)Nc1cccc(F)c1)C(=O)c1cc(-c2ccco2)nc2ccccc12 [MLS001156482] | – | – | – | – | 40.8 µM | > 57 µM | –
CC(C)OCCOc1ccc2oc(-c3ccco3)cc(=O)c2c1 [MLS001163009] | – | – | – | – | > 57 µM | > 57 µM | –
COc1cc(/C=C(\C#N)C(=O)Nc2cccc(C(=O)O)c2)ccc1OCc1ccc(Cl)cc1 [MLS001172702] | – | – | – | – | > 57 µM | > 57 µM | –
Cc1c(NS(=O)(=O)c2cc(C(=O)NCCN(C)C)ccc2Cl)c(=O)n(-c2ccccc2)n1C [MLS001175210] | – | – | – | – | > 57 µM | > 57 µM | –
O=[N+]([O-])c1ccc(Cl)c(-c2ccc(/C=N/n3cnnc3)o2)c1 [MLS001194618] | – | – | – | – | > 57 µM | > 57 µM | –
Cc1ccc2c(=O)cc(C(=O)NCCc3ccc(S(N)(=O)=O)cc3)oc2c1 [MLS001216111] | – | – | – | – | 36.3 µM | > 57 µM | –
COC(=O)c1c(C)[nH]c(C(=O)COc2ccc3ccc(=O)oc3c2)c1C [MLS002156353] | – | – | – | – | – | > 57 µM | –
COc1ccc(S(=O)(=O)N2CCN(C(=O)C3COc4ccccc4O3)CC2)cc1 (stereo not drawn) [MLS002159357] | – | – | – | – | > 57 µM | > 57 µM | –
COc1ccccc1NC(=O)COC(=O)c1cc2c(s1)CCC2 [MLS002161511] | – | – | – | – | > 57 µM | 18.2 µM | –
CNS(=O)(=O)c1cccc(C(=O)OCC(=O)c2ccc[nH]2)c1 [MLS002163823] | – | – | – | – | > 57 µM | > 57 µM | –
O=C(O)Cc1ccc(S(=O)(=O)N2CCCC2)s1 [MLS002245326] | – | – | – | – | > 57 µM | > 57 µM | –
O=C(/C=C/c1ccco1)OCC(=O)N1CCCCC1 [MLS002246602] | – | – | – | – | > 57 µM | > 57 µM | –
C=CCn1c(SCC(=O)Nc2sc3c(c2C#N)CCC(C)C3)nc2cc(C(=O)O)ccc2c1=O (stereo not drawn) [MLS002251505] | – | – | – | – | > 57 µM | > 57 µM | –
NS(=O)(=O)c1ccc(CCNC(=O)c2ccc3nccnc3c2)cc1 [MLS002252586] | – | – | – | – | > 57 µM | > 57 µM | –
COc1ccc(CNC(=O)COC(=O)c2ccc(S(=O)(=O)NCc3ccco3)cc2)cc1 [MLS002252767] | – | – | – | – | > 57 µM | > 57 µM | –
N[C@H](Cc1ccc(O)c(O)c1)C(=O)O [NCGC00093869] | 1 µM | 3.5 µM | 11.3% | – | > 57 µM | > 57 µM | –
O=C(O)c1cc[c]([Sb](=[O])([OH])[OH])cc1[N+](=O)[O-] [NSC-13755, reference compound] | – | – | – | – | – | – | 0.035 µM
